Measured values from ChEMBL document CHEMBL2380197, “Discovery of ML326: The first sub-micromolar, selective M5 PAM” (Bioorg Med Chem Lett, 2013).
Numbering of substitutions follows the chain as printed.

Legend:
[1] = target: T1, Muscarinic acetylcholine receptor M5 (Homo sapiens) (UniProt P08912); test: Positive allosteric modulation of human muscarinic M5 receptor relative to acetylcholine
T1 sequence (whole entry): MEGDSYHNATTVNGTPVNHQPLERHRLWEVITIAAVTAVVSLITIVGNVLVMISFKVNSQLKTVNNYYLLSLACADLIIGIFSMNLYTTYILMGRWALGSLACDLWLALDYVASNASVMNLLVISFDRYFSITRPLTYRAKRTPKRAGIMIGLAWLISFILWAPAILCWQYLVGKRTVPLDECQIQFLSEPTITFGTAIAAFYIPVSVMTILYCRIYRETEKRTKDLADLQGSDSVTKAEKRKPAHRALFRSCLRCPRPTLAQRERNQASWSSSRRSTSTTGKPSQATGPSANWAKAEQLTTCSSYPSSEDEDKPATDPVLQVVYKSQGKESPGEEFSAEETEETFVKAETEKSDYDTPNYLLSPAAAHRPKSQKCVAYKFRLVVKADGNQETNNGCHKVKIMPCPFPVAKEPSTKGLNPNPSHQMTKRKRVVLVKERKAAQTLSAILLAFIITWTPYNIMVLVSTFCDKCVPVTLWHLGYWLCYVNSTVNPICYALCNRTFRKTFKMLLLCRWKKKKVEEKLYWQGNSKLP

[2] = target: T2, Muscarinic acetylcholine receptor M5 (Homo sapiens, UniProt P08912); test: Positive allosteric modulation of human muscarinic M5 receptor
T2 sequence (P08912 whole entry): T1 sequence (whole entry)

[3] = target: Muscarinic acetylcholine receptor M3 (Homo sapiens, UniProt P20309); test: Positive allosteric modulation of human muscarinic M3 receptor
Muscarinic acetylcholine receptor M3 (Homo sapiens, UniProt P20309), sequence (P20309 whole entry): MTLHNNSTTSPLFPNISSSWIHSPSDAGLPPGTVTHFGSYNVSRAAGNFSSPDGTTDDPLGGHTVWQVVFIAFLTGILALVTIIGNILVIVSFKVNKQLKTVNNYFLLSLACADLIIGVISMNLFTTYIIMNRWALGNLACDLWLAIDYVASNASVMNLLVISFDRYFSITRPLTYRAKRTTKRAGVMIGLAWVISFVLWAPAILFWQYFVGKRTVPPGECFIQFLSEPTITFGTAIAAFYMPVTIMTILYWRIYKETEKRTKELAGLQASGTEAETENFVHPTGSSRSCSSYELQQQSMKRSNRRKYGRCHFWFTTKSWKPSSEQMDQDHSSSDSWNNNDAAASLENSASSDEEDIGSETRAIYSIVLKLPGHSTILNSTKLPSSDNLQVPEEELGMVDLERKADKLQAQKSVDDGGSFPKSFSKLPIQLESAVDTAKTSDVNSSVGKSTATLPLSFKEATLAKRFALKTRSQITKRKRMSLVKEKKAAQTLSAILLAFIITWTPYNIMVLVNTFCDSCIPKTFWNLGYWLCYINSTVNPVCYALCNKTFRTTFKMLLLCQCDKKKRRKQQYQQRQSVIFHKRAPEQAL

[4] = target: T3, Muscarinic acetylcholine receptor M4 (Homo sapiens, UniProt P08173); test: Positive allosteric modulation of human muscarinic M4 receptor
T3 sequence (P08173 whole entry): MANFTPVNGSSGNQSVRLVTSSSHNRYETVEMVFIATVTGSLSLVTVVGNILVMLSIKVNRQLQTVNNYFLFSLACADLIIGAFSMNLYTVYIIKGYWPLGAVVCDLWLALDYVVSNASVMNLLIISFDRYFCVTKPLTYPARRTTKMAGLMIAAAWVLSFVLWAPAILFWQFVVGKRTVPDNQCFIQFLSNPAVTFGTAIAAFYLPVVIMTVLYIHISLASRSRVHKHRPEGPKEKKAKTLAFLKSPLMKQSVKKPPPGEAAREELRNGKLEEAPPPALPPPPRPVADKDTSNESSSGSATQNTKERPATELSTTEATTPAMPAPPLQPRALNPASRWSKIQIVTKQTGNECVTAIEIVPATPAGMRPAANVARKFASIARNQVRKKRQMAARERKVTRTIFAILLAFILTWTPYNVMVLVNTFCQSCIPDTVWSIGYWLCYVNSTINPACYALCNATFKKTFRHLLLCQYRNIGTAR

[5] = target: T4, Muscarinic acetylcholine receptor M2 (Homo sapiens, UniProt P08172); test: Positive allosteric modulation of human muscarinic M2 receptor
T4 sequence (P08172 whole entry): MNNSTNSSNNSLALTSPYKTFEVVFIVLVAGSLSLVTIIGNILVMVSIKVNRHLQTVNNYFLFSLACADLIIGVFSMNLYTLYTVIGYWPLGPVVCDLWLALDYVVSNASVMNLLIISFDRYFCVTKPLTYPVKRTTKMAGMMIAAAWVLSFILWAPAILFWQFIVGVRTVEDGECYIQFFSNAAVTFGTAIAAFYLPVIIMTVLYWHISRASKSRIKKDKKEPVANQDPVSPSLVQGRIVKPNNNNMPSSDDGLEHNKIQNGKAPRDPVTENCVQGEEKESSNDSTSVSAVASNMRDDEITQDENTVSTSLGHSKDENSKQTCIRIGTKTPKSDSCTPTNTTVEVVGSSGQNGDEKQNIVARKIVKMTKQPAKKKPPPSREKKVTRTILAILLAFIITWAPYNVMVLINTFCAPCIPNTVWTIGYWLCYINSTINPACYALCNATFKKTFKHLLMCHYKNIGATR

[6] = target: T1, Muscarinic acetylcholine receptor M5 (Homo sapiens); test: Positive allosteric modulation of human muscarinic M5 receptor assessed as fold shift of acetylcholine-induced response at 30 uM
[7] = target: T5, Muscarinic acetylcholine receptor M5 (Rattus norvegicus) (UniProt P08911); test: Positive allosteric modulation of rat muscarinic M5 receptor relative to acetylcholine
T5 sequence (whole entry): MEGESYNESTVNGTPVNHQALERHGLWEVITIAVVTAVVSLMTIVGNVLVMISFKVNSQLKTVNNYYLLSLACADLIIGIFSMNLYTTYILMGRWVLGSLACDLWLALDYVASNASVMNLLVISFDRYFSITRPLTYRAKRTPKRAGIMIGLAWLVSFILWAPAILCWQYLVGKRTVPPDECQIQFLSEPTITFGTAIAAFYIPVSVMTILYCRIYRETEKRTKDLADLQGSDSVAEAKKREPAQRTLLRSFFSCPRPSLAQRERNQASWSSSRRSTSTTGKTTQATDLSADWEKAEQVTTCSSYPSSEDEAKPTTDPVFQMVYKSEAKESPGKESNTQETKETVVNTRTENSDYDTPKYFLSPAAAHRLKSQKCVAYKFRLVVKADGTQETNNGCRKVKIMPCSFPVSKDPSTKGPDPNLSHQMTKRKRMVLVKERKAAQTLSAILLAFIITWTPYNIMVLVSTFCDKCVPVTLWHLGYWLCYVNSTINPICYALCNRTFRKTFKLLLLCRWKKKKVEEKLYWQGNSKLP

[8] = target: T6, Muscarinic acetylcholine receptor M1 (Homo sapiens, UniProt P11229); test: Positive allosteric modulation of human muscarinic M1 receptor
T6 sequence (P11229 whole entry): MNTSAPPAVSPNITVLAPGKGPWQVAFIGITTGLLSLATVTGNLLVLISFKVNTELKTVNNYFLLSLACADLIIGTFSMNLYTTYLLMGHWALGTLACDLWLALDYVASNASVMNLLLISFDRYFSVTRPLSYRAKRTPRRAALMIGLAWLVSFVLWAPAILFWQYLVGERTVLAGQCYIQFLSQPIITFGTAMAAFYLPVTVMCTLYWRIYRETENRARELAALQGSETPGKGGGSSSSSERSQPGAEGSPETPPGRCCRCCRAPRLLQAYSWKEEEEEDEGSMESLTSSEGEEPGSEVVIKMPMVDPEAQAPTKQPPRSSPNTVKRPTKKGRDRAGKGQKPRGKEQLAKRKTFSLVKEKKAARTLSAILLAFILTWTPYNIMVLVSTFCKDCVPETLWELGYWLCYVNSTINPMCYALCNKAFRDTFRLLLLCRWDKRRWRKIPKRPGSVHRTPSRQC

[9] = target: T1, Muscarinic acetylcholine receptor M5 (Homo sapiens); test: Positive allosteric modulation of human muscarinic M5 receptor at 3 uM relative to acetylcholine
[10] = target: Muscarinic acetylcholine receptor M3 (Rattus norvegicus, UniProt P08483); test: Positive allosteric modulation of rat muscarinic M3 receptor
Muscarinic acetylcholine receptor M3 (Rattus norvegicus, UniProt P08483), sequence (P08483 whole entry): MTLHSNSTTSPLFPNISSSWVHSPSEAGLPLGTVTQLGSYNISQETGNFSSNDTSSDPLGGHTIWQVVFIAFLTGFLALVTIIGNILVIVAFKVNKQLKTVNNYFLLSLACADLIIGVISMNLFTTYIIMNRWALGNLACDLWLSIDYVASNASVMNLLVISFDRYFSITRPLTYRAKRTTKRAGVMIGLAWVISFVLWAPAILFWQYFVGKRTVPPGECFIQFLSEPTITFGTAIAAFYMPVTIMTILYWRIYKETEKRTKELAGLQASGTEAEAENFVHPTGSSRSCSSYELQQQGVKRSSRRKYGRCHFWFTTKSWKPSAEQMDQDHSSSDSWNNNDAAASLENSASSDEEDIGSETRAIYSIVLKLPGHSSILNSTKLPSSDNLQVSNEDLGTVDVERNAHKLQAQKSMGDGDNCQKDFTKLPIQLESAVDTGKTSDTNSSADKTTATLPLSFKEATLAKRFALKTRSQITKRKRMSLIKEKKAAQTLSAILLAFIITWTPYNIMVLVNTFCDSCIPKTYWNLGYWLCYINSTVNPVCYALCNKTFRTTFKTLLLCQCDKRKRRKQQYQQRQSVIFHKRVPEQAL

[11] = target: T7, Muscarinic acetylcholine receptor M4 (Rattus norvegicus, UniProt P08485); test: Positive allosteric modulation of rat muscarinic M4 receptor
T7 sequence (P08485 whole entry): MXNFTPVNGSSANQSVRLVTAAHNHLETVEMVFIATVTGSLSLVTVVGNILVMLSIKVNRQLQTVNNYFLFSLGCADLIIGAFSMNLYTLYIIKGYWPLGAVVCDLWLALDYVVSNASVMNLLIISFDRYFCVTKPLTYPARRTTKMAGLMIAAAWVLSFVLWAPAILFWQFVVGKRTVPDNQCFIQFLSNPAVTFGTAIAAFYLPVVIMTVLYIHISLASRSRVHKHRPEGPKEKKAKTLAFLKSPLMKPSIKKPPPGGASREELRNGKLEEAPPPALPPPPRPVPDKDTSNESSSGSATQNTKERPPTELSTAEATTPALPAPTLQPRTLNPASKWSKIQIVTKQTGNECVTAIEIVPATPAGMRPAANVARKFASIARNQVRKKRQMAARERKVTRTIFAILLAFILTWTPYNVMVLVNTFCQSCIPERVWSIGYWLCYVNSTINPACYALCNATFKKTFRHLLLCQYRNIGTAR

[12] = target: T8, Muscarinic acetylcholine receptor M2 (Rattus norvegicus, UniProt P10980); test: Positive allosteric modulation of rat muscarinic M2 receptor
T8 sequence (P10980 whole entry): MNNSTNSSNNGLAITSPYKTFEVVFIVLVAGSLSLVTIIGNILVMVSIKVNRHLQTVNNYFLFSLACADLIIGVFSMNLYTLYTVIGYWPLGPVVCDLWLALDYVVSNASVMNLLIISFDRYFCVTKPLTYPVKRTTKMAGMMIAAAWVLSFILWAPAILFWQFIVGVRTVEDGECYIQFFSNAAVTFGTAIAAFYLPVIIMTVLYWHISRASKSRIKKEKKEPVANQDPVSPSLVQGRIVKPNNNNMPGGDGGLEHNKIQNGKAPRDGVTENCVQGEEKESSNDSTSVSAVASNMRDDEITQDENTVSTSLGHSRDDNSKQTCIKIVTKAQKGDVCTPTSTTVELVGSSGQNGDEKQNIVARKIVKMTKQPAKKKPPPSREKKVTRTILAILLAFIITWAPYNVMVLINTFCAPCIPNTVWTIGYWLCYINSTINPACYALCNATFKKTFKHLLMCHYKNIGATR

[13] = target: T9, Muscarinic acetylcholine receptor M1 (Rattus norvegicus, UniProt P08482); test: Positive allosteric modulation of rat muscarinic M1 receptor
T9 sequence (P08482 whole entry): T6 sequence (P11229 whole entry) with A5V, T254S, P309S, R320K, A337G, I413V

Structure (SMILES) | Emax [1] | EC50 [2] | EC50 [3] | EC50 [4] | EC50 [5] | fold change (FC) [6] | EC50 [8] | further results
O=C1C(=O)N(CCOc2ccc(Cl)cc2)c2ccc(OC(F)(F)F)cc21 | 92% | 0.45 µM | – | – | – | – | – | –
Cn1cc(-c2ccc(CN3C(=O)C(=O)c4ccccc43)c(F)c2)cn1 | 45% | – | > 30 µM | > 30 µM | > 30 µM | – | – | –
COc1ccc(CN2C(=O)C(=O)c3cc(OC(F)(F)F)ccc32)cc1 | – | – | > 30 µM | > 30 µM | > 30 µM | 14 | > 30 µM | fold change (FC) [7]: 20
COc1ccc(CN2C(=O)C(O)(C[N+](=O)[O-])c3cc(OC(F)(F)F)ccc32)cc1 (stereo not given) | 75% | 1.4 µM | – | – | – | – | – | –
Cc1cccc(OCCN2C(=O)C(=O)c3cc(OC(F)(F)F)ccc32)c1 | 91% | 0.53 µM | – | – | – | – | – | –
Cc1cccc2c1N(CCOc1ccccc1)C(=O)C2=O | – | – | – | – | – | – | – | Emax [9]: 31%
COc1ccc(CN2C(=O)C(O)(c3ccc(F)nc3)c3cc(OC(F)(F)F)ccc32)cc1 (stereo not given) | 74% | 2.2 µM | – | – | – | – | – | –
O=C1C(=O)N(CCOc2ccccc2)c2ccc(OC(F)(F)F)cc21 | 91% | 0.41 µM | > 30 µM | > 30 µM | > 30 µM | 20 | > 30 µM | EC50 [10]: > 30 µM; EC50 [11]: > 30 µM; EC50 [12]: > 30 µM; EC50 [13]: > 30 µM; fold change (FC) [7]: 20
COc1ccc(OCCN2C(=O)C(=O)c3cc(OC(F)(F)F)ccc32)cc1 | 89% | 0.59 µM | – | – | – | – | – | –
O=C1C(=O)N(CCOc2ccc(Oc3ccccc3)cc2)c2ccc(OC(F)(F)F)cc21 | 93% | 1.05 µM | – | – | – | – | – | –
O=C1C(=O)N(Cc2ccc(Oc3ccccc3)cc2)c2ccc(OC(F)(F)F)cc21 | – | – | > 30 µM | > 30 µM | > 30 µM | 5 | > 30 µM | –
O=C1C(=O)N(Cc2ccc(Oc3cccc(F)n3)cc2)c2ccc(OC(F)(F)F)cc21 | – | – | > 30 µM | > 30 µM | > 30 µM | 6 | > 30 µM | –
